In the METLIN SMRT retention time set (Domingo-Almenara et al. 2019):

Assay: gradient 5% acetonitrile 3 min, to 50% in 2 min, to 85% in 15 min, held 3 min, 100 µL/min
Details: column: Zorbax Extend-C18 2.1 x 50 mm; eluents: water / acetonitrile, 0.1% formic acid
How it was run: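 Pure standards were analyzed in mixtures of ~100 molecules using HPLC coupled to a quadrupole time-of-flight mass spectrometer, in both positive and negative ionization mode. Separation used a Zorbax Extend-C18 column (2.1 × 50 mm, 1.8 μm) at 100 μL/min, with water and acetonitrile each containing 0.1% formic acid. Dead and dwell volumes were 40 μL and 900 μL, and data were collected over 3 months. Retention time was read from computationally picked adduct peaks, each inspected manually.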

Compound | RP-LC retention time [s]
Cc1nc2cc(-c3noc(-c4ccc(Br)o4)n3)ccc2o1 | 1090
CCc1cc(C(=O)Nc2cc(F)ccc2C)nc2ccnn12 | 1090
CCN(CC)CCNC(=O)Cn1c2ccccc2c2nc(=O)cc(C)n21 | 592
CC1CCN(C(=O)c2cn(-c3cc(-c4nc(C5CC5)no4)ccn3)cn2)CC1 | 907
COC(=O)c1cc2c(=O)n(-c3nc4cc(C)c(C)cc4s3)ccc2nc1C | 1420
Cc1cc(NC(=O)c2cccc(N3C(=O)CCC3=O)c2)n(-c2nc3ccc(F)cc3s2)n1 | 706
Cc1ccc(C)n1-c1nnc(N2CCCC(C(=O)NC3CC3)C2)s1 (stereo not drawn) | 780
CN1CCN(C(=O)c2noc3c2CC(C(C)(C)C)CC3)CC1 (stereo not drawn) | 582
Cc1csc(-c2cc(S(=O)(=O)NC3CCCC3)cn2CC(=O)N2CCCCC2)n1 | 934
Cc1cc(-c2nnc(-c3ccco3)o2)c(C)n1CC(=O)Nc1cc(F)cc(F)c1 | 929
Cc1ccc2c(Nc3ccc4c(c3)OCO4)c(C(=O)N3CCOCC3)cnc2n1 | 765
CCn1cc(C(=O)Nc2ccc(C)cc2C)c2cccnc21 | 962
COc1cc(OC)cc(-c2noc(-c3nnn(Cc4nc(-c5cccc(C)c5)oc4C)c3C)n2)c1 | 1280
CN(C)C(=O)c1n[nH]c2c1CN(C(=O)c1ccccc1Br)CC2 | 623
Cc1sc2ccn(C)c(=O)c2c1C(=O)NCc1ccc(Br)cc1 | 811
O=C(Cn1nc2n(c1=O)CCCC2)Nc1ccc(F)c(Cl)c1 | 670
COc1ccc(/C=C/c2cc3c(cc2OC)OCCO3)cc1O | 938
COc1ccc(-n2nnc3c(SCc4cccc([N+](=O)[O-])c4)ncnc32)cc1 | 1100
CC(C)(C)OC(=O)Cn1cnc2c(-c3ccc(Cl)cc3)csc2c1=O | 1120

Compound | RP-LC retention time [s]
COCc1nc(C2CCN(C(=O)C3CC3)C2)no1 (stereo not drawn) | 626
COC(=O)c1cc2c(=O)n(CCc3cccs3)ccc2nc1C | 838
Cc1cc(NS(=O)(=O)c2c(C)noc2C)n(C2CCS(=O)(=O)C2)n1 (stereo not drawn) | 676
CCCCN(C)C(=O)c1cnc(-c2ccc(C)cc2)nc1-c1ccncc1 | 968
Cc1nnc(N2CCCC(C(=O)N3CCCCC3)C2)c2nn(-c3ccc(Cl)cc3)c(C)c12 (stereo not drawn) | 741
O=c1c2sccc2n(Cc2nc(-c3ccc(Br)cc3)no2)c(=O)n1-c1ccc(F)cc1 | 1100
Cc1oc(-c2ccc(NC(=O)C3CCCO3)cc2)nc1Cn1cccn1 (stereo not drawn) | 774
COCC(=O)NC1CCC12CCN(S(=O)(=O)c1c(C)nn(C)c1C)CC2 (stereo not drawn) | 657
C[C@]12CCC(=O)C(=O)C1CC[C@@H]1[C@@H]2CC[C@]2(C)C(=O)CC[C@@H]12 (stereo partly drawn) | 1030
N=C(N)n1c(N)nc2ccccc2c1=O | 613
Cc1ccc2oc(-c3nnc(C(=O)NCc4ccc(C)o4)o3)c(C)c2c1 | 1100
Cc1ccc(NC(=O)Cn2c(=O)n(-c3ccc(F)cc3)c(=O)c3c2cc(C)n3C)c(C)c1 | 879
CC(C)(C)NC(=O)N1CC(c2nc(-c3cccnc3)no2)C2(CCOCC2)C1 (stereo not drawn) | 677
CC(C)NC(=O)C1CCN(c2cncnc2N2CCOCC2)CC1 | 570
Cn1nnc2cc(-c3noc(CNC(=O)c4ccccc4)n3)ccc21 | 708
Cc1ccc(OCC(=O)N2CCC(c3noc(-c4cnccn4)n3)C2)cc1 (stereo not drawn) | 754
CCCCc1ccc(NC(=O)CSc2cc(N3CCC(C(=O)NCC)CC3)ncn2)cc1 | 871
Cc1ccc2c(C(=O)Nc3ccc(N4CCOCC4)cc3)cc(NC(=O)C(C)C)cc2n1 | 618
Cc1cc(C)c(C)c(S(=O)(=O)N2CCCC2c2nc(-c3cccc(F)c3)no2)c1C (stereo not drawn) | 1360

Next, values leading:

RP-LC retention time [s] | Compound
712 | CCN1CCN(C(=O)CN2c3ccc(C(C)C)cc3-c3ccccc3S2(=O)=O)CC1
750 | COc1ccccc1N1CCN(c2ncc(C(=O)O)c(C)n2)CC1
548 | CCc1nnc2cc(N3CCN(C(=O)Nc4ccccc4Cl)CC3)cnn12
720 | CC(=O)N1CCc2cc(N3CC(C(=O)NCc4ccc(Cl)cc4)CC3=O)ccc21 (stereo not drawn)
718 | Cc1ccc2nc(C(=O)NCc3ccccc3Cl)cn2c1
848 | COC(=O)c1cc(S(=O)(=O)N2CCCC2C(=O)N2CCc3ccccc32)cn1C (stereo not drawn)
1070 | CCOc1ccc(-c2noc(Cn3nc(-c4ccccc4)ccc3=O)n2)cc1
668 | O=C(N1CCOCC1)N1CCN(S(=O)(=O)c2cccc([N+](=O)[O-])c2)CC1
748 | COc1ccc(Cl)cc1NC(=O)Nc1ccc2c(c1)C(=O)NCC2
797 | N#Cc1ccc(S(=O)(=O)N2CCCN(S(=O)(=O)c3ccccc3)CCC(=O)NCC2)cc1
726 | CCc1ccccc1NC(=O)C1CCN(S(=O)(=O)c2c(C)[nH]c(C)c2C(=O)N2CCCC2)CC1
1020 | COc1ccc(OC)c(NC(=O)Cn2cccc2-c2nnc(-c3ccccc3)o2)c1
637 | CCS(=O)(=O)N1CC(CC#N)(n2cc(-c3ncnc4[nH]ccc34)cn2)C1
747 | Cc1c(Cl)cccc1NC(=O)N1CCCC(Cn2cnc3cccnc32)C1 (stereo not drawn)
826 | O=C(CN1C(=O)NC2(CCCCC2)C1=O)Nc1ccc(Br)cc1F
844 | Cc1sc2ccn(C)c(=O)c2c1C(=O)N1CCN(c2cccc(Cl)c2)CC1
896 | CCOc1ccc(NS(=O)(=O)c2cc3c(s2)CCN(C(=O)C2CCC2)C3)cc1
817 | CCc1ccc(NC(=O)CN2C(=O)C3CCCCN3c3ccc(S(=O)(=O)N(C)C)cc32)cc1 (stereo not drawn)
957 | O=C(NC1CCCCC1)C1CCCN(c2nc3ccsc3c(=O)n2Cc2ccccc2)C1 (stereo not drawn)
660 | COCc1cc(=O)n2c(n1)N(Cc1ccccc1F)CC2
591 | CCN1CCN(C(=O)c2nc3ccccn3c2-c2ccc(Cl)cc2)CC1
808 | O=C1CCC2(C(=O)NCCc3ccccc3)CCCC=C2N1c1ccccc1 (stereo not drawn)
825 | Cc1ccc(N2CCN(C(=O)C3CCc4sc(C(=O)N(C)C)cc4C3)CC2)cc1 (stereo not drawn)
1120 | CCOc1ccc(-c2nc(CN(c3ccccc3)S(=O)(=O)c3cccs3)c(C)o2)cc1OC
785 | O=C(c1cn(-c2cc(N3CCCCC3)ncn2)cn1)N1CCN(c2ncccn2)CC1

RP-LC retention time [s] | Compound
850 | O=C(c1nnn2c1COC(c1ccccc1)C2)N1CCN(C(=O)C2(c3ccccc3)CC2)CC1 (stereo not drawn)
879 | COc1ccc(CNC(=O)c2ccc3c(=O)n(-c4ccccc4)c(N4CCCC4)nc3c2)c(OC)c1
595 | Cc1cnc(C2CN(Cc3cccc(F)c3)C2)n1Cc1ccccc1
695 | O=C(CCS(=O)(=O)c1ccccc1)Nc1cc(-c2ccccc2)nn1CCO
695 | CC(C)c1cc(N2CCN(c3ccccn3)CC2)n2c(nc3ccccc32)c1C#N
800 | Cc1cc2nn(CC(=O)Nc3ccccc3)c(=O)n2c(-c2ccc(F)cc2)n1
782 | CCOc1ccc(S(=O)(=O)N2CCC(C(=O)Nc3ccc(C(N)=O)cc3)CC2)cc1C
805 | COc1cccc(S(=O)(=O)N2CCCN(S(=O)(=O)c3ccccc3)CCC(=O)NCC2)c1
800 | O=C(c1ccc(F)c(Cl)c1)N1CCC2(CC1)N=C(c1ccccc1)NO2
556 | CCOC(=O)c1ccccc1NC(=O)CN1CCC(Cn2cnc3ccccc32)CC1
763 | O=C(Cn1c(=O)c2cccn2c2ccccc21)NCc1cccs1
766 | CC(CNC(=O)C1CCN(S(=O)(=O)c2ccc3c(c2)CCCC(=O)N3)CC1)c1ccccc1 (stereo not drawn)
946 | COc1ccc(-n2c(=O)c3sccc3n(Cc3nc(-c4ccccc4Cl)no3)c2=O)cc1
782 | Cc1csc(NC(=O)C2CCN(S(=O)(=O)c3ccc4c(c3)sc(=O)n4C)CC2)n1
686 | c1ccc(-c2nc(-c3ccc(OC4CNC4)cc3)no2)cc1
652 | CCOc1ccc(NC(=O)CSc2ccc(N3CCCC(C(=O)NC4CC4)C3)nn2)cc1 (stereo not drawn)
884 | Cc1nn(-c2ccccc2)c(C)c1S(=O)(=O)N1CCC(C(=O)NCc2ccc3c(c2)OCO3)CC1
566 | O=C(NC1CC1)c1c2c(nc3ccccc13)CCC2
922 | Cc1c(-c2ccc(Cl)cc2)noc1C1CCN(CCc2ccccc2)CC1
900 | Cc1c(C(=O)C(=O)N(C)Cc2ccccc2)c2ccccc2n1C
909 | COc1ccc(Cl)cc1S(=O)(=O)N1CCC(C(=O)NCCc2ccccc2)CC1
623 | COc1ccccc1CN1CC(F)(F)C[C@H]1COc1ccncc1
686 | O=S(=O)(c1cccc(F)c1)N1CC(c2nc(CCOCC3CCOCC3)no2)C1
664 | O=S(=O)(c1cccc2cccnc12)N1CC[C@@H]2COCCN(Cc3ccccc3)[C@@H]2C1
661 | CCc1ccc(S(=O)(=O)c2cnc(N3CCC(C(N)=O)(N4CCCCC4)CC3)nc2N)cc1
